Test results from patent US12342819B2, “Elasnin, a bacteriostatic agent that has potent antibiofilm activities against both mono- and multi-species biofilm” (The Hong Kong University of Science and Technology, priority 2019, dated 2025).
Values after ≈ are worked out from the molar mass of the structure shown. Values joined by “and” are separate entries in the source; they are usually repeats but may differ in a detail not shown here. Identical values can stand only once.

Experiments:
[1] = target: T1, human granulocyte elastase (Homo sapiens, UniProt P08246); conditions: cited from earlier work
T1 sequence (P08246 30-267): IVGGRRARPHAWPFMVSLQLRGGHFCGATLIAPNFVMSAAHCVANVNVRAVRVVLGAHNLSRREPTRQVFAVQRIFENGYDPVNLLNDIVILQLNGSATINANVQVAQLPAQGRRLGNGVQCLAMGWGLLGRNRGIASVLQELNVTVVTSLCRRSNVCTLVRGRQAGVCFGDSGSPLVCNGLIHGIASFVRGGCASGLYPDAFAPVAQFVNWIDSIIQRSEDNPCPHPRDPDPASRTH

trypsin = conditions: cited from earlier work
MRSA biofilms = assay: CLSM observation with biofilm cell and matrix staining; format: cell-based, Methicillin-resistant Staphylococcus aureus; conditions: elasnin 4 μg/mL
Protocol: Biofilms were grown on glass cover slides as described for the MBIC and MBEC assays. Treated biofilms were then rinsed twice with 1×PBS and stained with FilmTracer™ FM® 1-43 green biofilm cell stain and FilmTracer™ SYPRO® Ruby Biofilm Matrix Stain at room temperature for 30 min in the dark. Leica Sp8 Confocal Microscope was employed to observe cells and matrix in the biofilm at 488 nm.

Bacillus subtilis 168 [2] = assay: MBIC assay; format: cell-based
Protocol: (§1) Minimum biofilm inhibitory concentrations (MBICs) and minimum biofilm eradication concentrations (MBECs) were determined as previously described (30, 31).
(§2) An overnight culture of the testing strains was diluted into approximately 10^7 with LB and 0.5% glucose and treated with various concentrations of Elasnin in 96-well cell culture plates. Culture broth was then incubated at 37° C. for 24 hours and rinsed twice by 1×PBS to remove non-adhering and planktonic cells. After the wash, MTT staining assay was conducted to measure viable cells in the biofilm since the MTT can react with activated succinate dehydrogenase in viable cell mitochondria to form blue violet formazan, which can be read at 570 nm after being dissolved in DMSO.

S. aureus B04 [3] = assay: MBIC assay; format: cell-based; conditions: S. aureus B04, 90% reduction of biofilm formation
Protocol: as §1, §2

S. aureus ATCC 25923 [4] = assay: MBIC assay; format: cell-based; conditions: S. aureus ATCC 25923, 90% reduction of biofilm formation
Protocol: as §1, §2

P. aeruginosa PAO1 [5] = assay: MBIC assay; format: cell-based; conditions: even at 100 μg/ml
Protocol: as §1, §2

E. coli ATCC 25922 [6] = assay: MBIC assay; format: cell-based; conditions: even at 100 μg/ml
Protocol: as §1, §2

MRSA ATCC 43300 [7] = assay: MBIC assay (biofilm inhibition, MTT); format: cell-based, Methicillin-resistant Staphylococcus aureus; conditions: minimum concentration inhibiting 90% biofilm formation
Protocol: as §1, §2

MRSA ATCC 43300 [8] = assay: Concentration response curve study (CFU counting of planktonic cells); format: cell-based, Methicillin-resistant Staphylococcus aureus; conditions: 24 hours; vancomycin 0 to 50 μg/ml, elasnin 0 to 100 μg/ml
Protocol: MRSA ATCC 43300 was used for concentration response curve study. 4×10^5 CFU/ml of exponentially growing MRSA was inoculated into MHB with various concentrations of elasnin and vancomycin in 15 ml falcon tubes. The tubes were incubated at 37° C. on a rotary shaker for 24 hours; 1 ml of culture broth in each tube was diluted with MHB and 1 ml diluted bacteria was plated on MHA plates for the CFU counting. Each concentration was plated on two plates and the experiments were repeated 3-times.

MRSA ATCC 43300 [9] = assay: MBEC assay (eradication of pre-formed biofilm, MTT); format: cell-based, Methicillin-resistant Staphylococcus aureus; conditions: concentration eradicating 50% of mature biofilm within 24 hours
Protocol: as §1
(§3) The ability of Elasnin to eradicate pre-formed mature biofilm was tested through a MBEC assay. Similar to MBIC assay, an overnight culture of testing strains was incubated for 24 hours in 96-well cell culture plates but without adding Elasnin to form biofilm. Formed biofilm was then rinsed twice by 1×PBS and challenged with a series concentration of Elasnin (diluted with LB and 0.5% glucose) and incubated for another 24 hours at 37° C. After incubation, each well was rinsed twice by 1×PBS and MTT assay was conducted to measure viable cells in remaining biofilm.

Bacillus subtilis 168 [10] = assay: MBEC assay; format: cell-based; conditions: 50% eradication of mature biofilm
Protocol: as §1, §3

S. aureus B04 [11] = assay: MBEC assay; format: cell-based; conditions: S. aureus B04, 50% eradication of mature biofilm
Protocol: as §1, §3

S. aureus ATCC 25923 [12] = assay: MBEC assay; format: cell-based; conditions: S. aureus ATCC 25923, 50% eradication of mature biofilm
Protocol: as §1, §3

P. aeruginosa PAO1 [13] = assay: MBEC assay; format: cell-based; conditions: viability of biofilm cells constant as concentration increased
Protocol: as §1, §3

E. coli ATCC 25922 [14] = assay: MBEC assay; format: cell-based; conditions: viability of biofilm cells constant as concentration increased
Protocol: as §1, §3

MRSA ATCC 43300 [15] = assay: Minimum bactericidal concentration (MBC); format: cell-based, Methicillin-resistant Staphylococcus aureus
Protocol: (§4) Minimum inhibitory concentrations (MICs) and minimum bactericidal concentrations (MBCs) were determined with MRSA ATCC 43300 and E. coli ATCC 25922, according to the Clinical and Laboratory Standards Institute guideline CLSI M100 (2018). Approximately 10^5 CFU/ml overnight culture of the bacteria strains were inoculated into MHB and treated with series concentrations of Elasnin (or crude extracts and antibiotics). […] MBCs were measured following the MIC assay by plating 1 ml suitable diluted culture broth from each well on Mueller Hinton Agar (MHA) plate. The MBCs were defined as lowest concentration at which antimicrobial agent caused >99.9% reduction of cells. Each assay was done in duplicates and repeated 3 times.

chymotrypsin = conditions: cited from earlier work
pancreatic elastase = conditions: cited from earlier work
MRSA ATCC 43300 [16] = assay: Minimum inhibitory concentration (MIC), CLSI M100; format: cell-based, Methicillin-resistant Staphylococcus aureus; conditions: Staphylococcus aureus, 24 h
Protocol: as §4

[17] = biofilm eradication assay, pre-formed biofilm, 18 hr
[18] = biofilm inhibition assay, 24 hr, vs untreated

For `CCCCCC(=O)C(CCCC)c1oc(=O)c(CCCC)c(O)c1CCCC` (stereo not drawn) [elasnin], the “inhibition of human granulocyte elastase” value [1] is listed as “inhibits”, the activity against trypsin (trypsin) is listed as “almost no activities” and the reduction in cells (MRSA biofilms; [17]) is listed as “over 50%”. For the same compound, the reduction in matrices (MRSA biofilms; [17]) was > 70%, the “decrease in density of cells” value (MRSA biofilms; [18]) was “around 80%” and the “decrease in density of matrices” value (MRSA biofilms; [18]) was ~35%. For the same compound, the MBIC (Bacillus subtilis 168 [2]; Bacillus subtilis 168, 90% reduction of biofilm formation) was 2.5 to 5 µg/mL, the biofilms inhibited (Bacillus subtilis 168 [2]; Bacillus subtilis 168, elasnin 1.25 μg/ml) was “at least 80%” and the MBIC (S. aureus B04 [3]) was 1.25 to 2.5 µg/mL. For the same compound, the MBIC (S. aureus ATCC 25923 [4]) was 1.25 to 2.5 µg/mL, the “development of biofilm formation” value (P. aeruginosa PAO1 [5]) was “not influenced” and the “development of biofilm formation” value (E. coli ATCC 25922 [6]) was “not influenced”. The MBIC (MRSA ATCC 43300 [7]) was 1.25 to 2.5 µg/mL, the “cell density versus concentration (concentration-response curve)” value (MRSA ATCC 43300 [8]) was “cell densities did not significantly differ” and the MBEC (MRSA ATCC 43300 [9]) was 1.25 µg/mL and 1.25 to 2.5 µg/mL. It also gave an MBEC (Bacillus subtilis 168 [10]) of 1.25 to 2.5 µg/mL, an MBEC (S. aureus B04 [11]) of 2.5 to 5 µg/mL and an MBEC (S. aureus ATCC 25923 [12]) of 0.625 to 1.25 µg/mL. The “activity in MBEC assay” value (P. aeruginosa PAO1 [13]) was “No activity”, the “activity in MBEC assay” value (E. coli ATCC 25922 [14]) was “No activity” and the MBC (MRSA ATCC 43300 [15]; >99.9% reduction of cells) was “above 100 μg/ml”. The activity against chymotrypsin (chymotrypsin) was “almost no activities” and the “activity against pancreatic elastase” value (pancreatic elastase) was “almost no activities”.
With `CN[C@H](CC(C)C)C(=O)N[C@H]1C(=O)N[C@@H](CC(N)=O)C(=O)N[C@H]2C(=O)N[C@H]3C(=O)N[C@H](C(=O)N[C@H](C(=O)O)c4cc(O)cc(O)c4-c4cc3ccc4O)[C@H](O)c3ccc(c(Cl)c3)Oc3cc2cc(c3O[C@@H]2O[C@H](CO)[C@@H](O)[C@H](O)[C@H]2O[C@H]2C[C@](C)(N)[C@H](O)[C@H](C)O2)Oc2ccc(cc2Cl)[C@H]1O` [vancomycin, reference compound] the MIC (MRSA ATCC 43300 [16]) was 0.5 to 2 µg/mL (≈ 0.345 to 1.38 µM), the “cell density versus concentration (concentration-response curve)” value (MRSA ATCC 43300 [8]) was “sharp decrease in cell density as the concentration increased” and the MBEC (MRSA ATCC 43300 [9]) was “More than 10 μg/ml”. For the same compound, the MBC (MRSA ATCC 43300 [15]; Staphylococcus aureus) was 20 to 50 µg/mL (≈ 13.8 to 34.5 µM).
